In patent publication US8658646B2, “Pyrrolopyrazine kinase inhibitors” (Hoffmann-LaRoche Inc., priority 2011, dated 2014):
Structures can show the parent of a compound that is named as a salt.

These compounds were tested against T1, recombinant human SYK360-635 (Homo sapiens, UniProt P43405) (assay: Determination of IC50 of Spleen Tyrosine Kinase (SYK) inhibition, 33P ATP filtration assay). Conditions: SYK aa 360-635 0.5 nM; ATP 20 μM, peptide 5 μM, 0.1% BSA; read-out: SYK_ENZYME_FILTRATION/v1, BSA.
T1 construct: made in house
Format: biochemical

IC50	SMILES
15.9 nM	CC(C)(C)NC(=O)c1c[nH]c2ncc(-c3nn(CC(=O)N4CCN(CC(F)(F)F)CC4)c4ccc(OC(F)F)cc34)nc12 [Example I-352, 2-(5-Difluoromethoxy-1-{2-oxo-2-[4-(2,2,2-trifluoro-ethyl)-piperazin-1-yl]-ethyl}-1H-indazol-3-yl)-5H-pyrrolo[2,3-b]pyrazine-7-carboxylic acid tert-butylamide]
106 nM	COCC(COC)NC(=O)c1c[nH]c2ncc(-c3nn(C)c4cc(Cl)ccc34)nc12 [Example I-166, 2-(6-Chloro-1-methyl-1H-indazol-3-yl)-5H-pyrrolo[2,3-b]pyrazine-7-carboxylic acid (2-methoxy-1-methoxymethyl-ethyl)-amide]
3.78 nM	CC(C)(C)NC(=O)c1c[nH]c2ncc(-c3nn(CCCO)c4ccc(OC(F)F)cc34)nc12 [Example I-298, 2-[5-Difluoromethoxy-1-(3-hydroxy-propyl)-1H-indazol-3-yl]-5H-pyrrolo[2,3-b]pyrazine-7-carboxylic acid tert-butylamide]
11.9 nM	COC[C@H](C)NC(=O)c1c[nH]c2ncc(-c3nn(C)c4ccc(C5CC5)cc34)nc12 [Example I-194, 2-(5-Cyclopropyl-1-methyl-1H-indazol-3-yl)-5H-pyrrolo[2,3-b]pyrazine-7-carboxylic acid ((S)-2-methoxy-1-methyl-ethyl)-amide]
41 nM	Cn1nc(-c2cnc3[nH]cc(C(=O)NC(C)(C)C)c3n2)c2ccc(OC(F)(F)F)cc21 [Example I-370, 2-(1-Methyl-6-trifluoromethoxy-1H-indazol-3-yl)-5H-pyrrolo[2,3-b]pyrazine-7-carboxylic acid tert-butylamide]
23.1 nM	Cn1nc(-c2cnc3[nH]cc(C(=O)NC(C)(C)CO)c3n2)c2ccc(OC(F)(F)F)cc21 [Example I-371, 2-(1-Methyl-6-trifluoromethoxy-1H-indazol-3-yl)-5H-pyrrolo[2,3-b]pyrazine-7-carboxylic acid (2-hydroxy-1,1-dimethyl-ethyl)-amide]
> 10000 nM	Cn1nc(-c2cnc3[nH]cc(C(=O)Nc4cccc(C#N)c4)c3n2)c2ccc(Cl)cc21 [Example I-404, 2-(6-Chloro-1-methyl-1H-indazol-3-yl)-5H-pyrrolo[2,3-b]pyrazine-7-carboxylic acid (3-cyano-phenyl)-amide]
75.3 nM	Cn1nc(-c2cnc3[nH]cc(C(=O)NC(C)(C)C)c3n2)c2c1CCCCC2 [Example I-272, 2-(1-Methyl-1,4,5,6,7,8-hexahydro-cycloheptapyrazol-3-yl)-5H-pyrrolo[2,3-b]pyrazine-7-carboxylic acid tert-butylamide]
2.82 nM	Cn1nc(-c2cnc3[nH]cc(C(=O)NC4(C)CCC4)c3n2)c2ccc(F)cc21 [Example I-376, 2-(6-Fluoro-1-methyl-1H-indazol-3-yl)-5H-pyrrolo[2,3-b]pyrazine-7-carboxylic acid (1-methyl-cyclobutyl)-amide]
101 nM	Cn1nc(-c2cnc3[nH]cc(C(=O)N[C@H]4CC[C@@H](N)CC4)c3n2)c2cc(OC(F)F)ccc21 [Example I-402, 2-(5-Difluoromethoxy-1-methyl-1H-indazol-3-yl)-5H-pyrrolo[2,3-b]pyrazine-7-carboxylic acid (cis-4-amino-cyclohexyl)-amide]
7.7 nM	Cc1ccc2c(-c3cnc4[nH]cc(C(=O)NC5(C#N)CC5)c4n3)nn(C)c2c1 [Example I-424, 2-(1,6-Dimethyl-1H-indazol-3-yl)-5H-pyrrolo[2,3-b]pyrazine-7-carboxylic acid (1-cyano-cyclopropyl)-amide]
108 nM	CC(C)(C)NC(=O)c1c[nH]c2ncc(-n3ncc4cc(Cl)ccc43)nc12 [Example I-324, 2-(5-Chloro-indazol-1-yl)-5H-pyrrolo[2,3-b]pyrazine-7-carboxylic acid tert-butylamide]
3.22 nM	COc1ccc2c(c1)c(-c1cnc3[nH]cc(C(=O)NC(C)(C)C)c3n1)nn2C [Example I-287, 2-(5-Methoxy-1-methyl-1H-indazol-3-yl)-5H-pyrrolo[2,3-b]pyrazine-7-carboxylic acid tert-butylamide]
4.67 nM	CC(C)(C)NC(=O)c1c[nH]c2ncc(-c3nn(Cc4cccnc4)c4ccc(OC(F)F)cc34)nc12 [Example I-264, 2-(5-Difluoromethoxy-1-pyridin-3-ylmethyl-1H-indazol-3-yl)-5H-pyrrolo[2,3-b]pyrazine-7-carboxylic acid tert-butylamide]
112 nM	COC(=O)c1cnc([C@H](C)NC(=O)c2c[nH]c3ncc(-c4nn(C)c5cc(F)ccc45)nc23)[nH]1 [Example I-359, 2-((S)-1-{[2-(6-Fluoro-1-methyl-1H-indazol-3-yl)-5H-pyrrolo[2,3-b]pyrazine-7-carbonyl]-amino}-ethyl)-3H-imidazole-4-carboxylic acid methyl ester]
24.7 nM	Cc1ccc2c(-c3cnc4[nH]cc(C(=O)NC(C)(C)CO)c4n3)nn(CCN3CCOCC3)c2c1 [Example I-445, 2-[6-Methyl-1-(2-morpholin-4-yl-ethyl)-1H-indazol-3-yl]-5H-pyrrolo[2,3-b]pyrazine-7-carboxylic acid (2-hydroxy-1,1-dimethyl-ethyl)-amide]

IC50	SMILES
107 nM	C[C@H](NC(=O)c1c[nH]c2ncc(-c3nn(C)c4cc(F)ccc34)nc12)c1ncc(C(F)(F)F)[nH]1 [Example I-358, 2-(6-Fluoro-1-methyl-1H-indazol-3-yl)-5H-pyrrolo[2,3-b]pyrazine-7-carboxylic acid [(S)-1-(5-trifluoromethyl-1H-imidazol-2-yl)-ethyl]-amide]
492 nM	Cn1nc(-c2cnc3[nH]cc(C(=O)NC(C)(C)C(C)(C)N)c3n2)c2ccc(F)cc21 [Example I-393, 2-(6-Fluoro-1-methyl-1H-indazol-3-yl]-5H-pyrrolo[2,3-b]pyrazine-7-carboxylic acid (2-amino-1,1,2-trimethyl-propyl)-amide]
1.95 nM	Cn1nc(-c2cnc3[nH]cc(C(=O)N[C@]4(C)CC[C@@H](N)CC4)c3n2)c2ccc(F)cc21 [Example I-416, 2-(6-Fluoro-1-methyl-1H-indazol-3-yl)-5H-pyrrolo[2,3-b]pyrazine-7-carboxylic acid (trans-4-amino-1-methyl-cyclohexyl)-amide]
2130 nM	COc1ccc2c(c1)c(-c1cnc3[nH]cc(C(=O)N[C@@H]4CCOC[C@@H]4N)c3n1)nn2C [Example I-290, 2-(5-Methoxy-1-methyl-1H-indazol-3-yl)-5H-pyrrolo[2,3-b]pyrazine-7-carboxylic acid ((3R,4R)-3-amino-tetrahydro-pyran-4-yl)-amide]
73.6 nM	Cn1nc(-c2cnc3[nH]cc(C(=O)NC(C)(C)C)c3n2)c2cc(C(F)(F)F)ccc21 [Example I-412, 2-(1-Methyl-5-trifluoromethyl-1H-indazol-3-yl)-5H-pyrrolo[2,3-b]pyrazine-7-carboxylic acid tert-butylamide]
13.9 nM	CN(C)CCCn1nc(-c2cnc3[nH]cc(C(=O)NC4(C)CC4)c3n2)c2cc(OC(F)F)ccc21 [Example I-452, 2-(5-(Difluoromethoxy)-1-(3-(dimethylamino)propyl)-1H-indazol-3-yl)-N-(1-methylcyclopropyl)-5H-pyrrolo[3,2-b]pyrazine-7-carboxamide trifluoroacetate]
9.95 nM	C#CC(C)(C)NC(=O)c1c[nH]c2ncc(-c3nn(C)c4cc(F)ccc34)nc12 [Example I-380, 2-(6-Fluoro-1-methyl-1H-indazol-3-yl)-5H-pyrrolo[2,3-b]pyrazine-7-carboxylic acid (1,1-dimethyl-prop-2-ynyl)-amide]
56.8 nM	CC(C)(CO)NC(=O)c1c[nH]c2ncc(-n3ncc4cc(Cl)ccc43)nc12 [Example I-318, 2-(5-Chloro-indazol-1-yl)-5H-pyrrolo[2,3-b]pyrazine-7-carboxylic acid (2-hydroxy-1,1-dimethyl-ethyl)-amide]
8.5 nM	CC(C)(C)NC(=O)c1c[nH]c2ncc(-c3nn(CCC4CNC4)c4cc(F)ccc34)nc12 [Example I-302, 2-[1-(2-Azetidin-3-yl-ethyl)-6-fluoro-1H-indazol-3-yl]-5H-pyrrolo[2,3-b]pyrazine-7-carboxylic acid tert-butylamide]
8.92 nM	CC(C)(C)NC(=O)c1c[nH]c2ncc(-c3ncn4cc(Cl)ccc34)nc12 [Example I-356, 2-(6-Chloro-imidazo[1,5-a]pyridin-1-yl)-5H-pyrrolo[2,3-b]pyrazine-7-carboxylic acid tert-butylamide]
163 nM	CC(C)(C)NC(=O)c1c[nH]c2ncc(-c3cccc4cn[nH]c34)nc12 [Example I-421, 2-(1H-Indazol-7-yl)-5H-pyrrolo[2,3-b]pyrazine-7-carboxylic acid tert-butylamide]
23.5 nM	Cn1nc(-c2cnc3[nH]cc(C(=O)NC4(CO)CCC4)c3n2)c2ccc(F)cc21 [Example I-256, 2-(6-Fluoro-1-methyl-1H-indazol-3-yl)-5H-pyrrolo[2,3-b]pyrazine-7-carboxylic acid (1-hydroxymethyl-cyclobutyl)-amide]
61.6 nM	CC(C)(C)NC(=O)c1c[nH]c2ncc(-n3nc(Cl)c4ccccc43)nc12 [Example I-335, 2-(3-Chloro-indazol-1-yl)-5H-pyrrolo[2,3-b]pyrazine-7-carboxylic acid tert-butylamide]
656 nM	Cn1nc(-c2cnc3[nH]cc(C(=O)NC4(CN)CC4)c3n2)c2ccc(F)cc21 [Example I-443, 2-(6-Fluoro-1-methyl-1H-indazol-3-yl)-5H-pyrrolo[2,3-b]pyrazine-7-carboxylic acid (1-aminomethyl-cyclopropyl)-amide]
19.9 nM	CC(C)(C)NC(=O)c1c[nH]c2ncc(-c3nn(CC(F)(F)F)c4cc(F)ccc34)nc12 [Example I-418, 2-[6-Fluoro-1-(2,2,2-trifluoro-ethyl)-1H-indazol-3-yl]-5H-pyrrolo[2,3-b]pyrazine-7-carboxylic acid tert-butylamide]
31.7 nM	Cn1nc(-c2cnc3[nH]cc(C(=O)NC4(C#N)CC4)c3n2)c2ccc(F)cc21 [Example I-387, 2-(6-Fluoro-1-methyl-1H-indazol-3-yl)-5H-pyrrolo[2,3-b]pyrazine-7-carboxylic acid (1-cyano-cyclopropyl)-amide]
